# Laboratory results as given in patent EP2108954A1, “A test system for detecting intracellular cyclic nucleotide level and methods and uses thereof” (Max-Planck-Gesellschaft zur Förderung der Wissenschaften …, priority 2008, dated 2009).
# Values joined by “and” are separate entries in the source; they are usually repeats but may differ in a detail not shown here. Equal values may be shown once.
# Assays:
# [1] = target: T1, Or47a and Or83b (Drosophila melanogaster, UniProt P81921+Q9VNB5); experiment: Whole-cell patch-clamp of HEK293 cells expressing Or47a and Or83b; assay type: cell-based; conditions: 100 µM; -100 mV (Fig. 7)
# T1 construct: expressed in transfected cells; host or cells: HEK293
# T1 sequence (P81921 1-385): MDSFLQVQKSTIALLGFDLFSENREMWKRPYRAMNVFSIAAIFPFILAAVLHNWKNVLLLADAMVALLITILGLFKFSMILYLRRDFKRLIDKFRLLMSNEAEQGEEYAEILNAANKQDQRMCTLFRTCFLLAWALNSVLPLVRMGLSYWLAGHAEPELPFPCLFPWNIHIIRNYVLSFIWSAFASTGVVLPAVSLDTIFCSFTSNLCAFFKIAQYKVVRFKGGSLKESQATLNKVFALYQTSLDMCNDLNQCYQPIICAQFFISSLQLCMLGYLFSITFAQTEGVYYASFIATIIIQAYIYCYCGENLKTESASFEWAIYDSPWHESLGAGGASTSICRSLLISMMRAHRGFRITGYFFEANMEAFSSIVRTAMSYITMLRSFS
# T1 sequence (Q9VNB5 1-486): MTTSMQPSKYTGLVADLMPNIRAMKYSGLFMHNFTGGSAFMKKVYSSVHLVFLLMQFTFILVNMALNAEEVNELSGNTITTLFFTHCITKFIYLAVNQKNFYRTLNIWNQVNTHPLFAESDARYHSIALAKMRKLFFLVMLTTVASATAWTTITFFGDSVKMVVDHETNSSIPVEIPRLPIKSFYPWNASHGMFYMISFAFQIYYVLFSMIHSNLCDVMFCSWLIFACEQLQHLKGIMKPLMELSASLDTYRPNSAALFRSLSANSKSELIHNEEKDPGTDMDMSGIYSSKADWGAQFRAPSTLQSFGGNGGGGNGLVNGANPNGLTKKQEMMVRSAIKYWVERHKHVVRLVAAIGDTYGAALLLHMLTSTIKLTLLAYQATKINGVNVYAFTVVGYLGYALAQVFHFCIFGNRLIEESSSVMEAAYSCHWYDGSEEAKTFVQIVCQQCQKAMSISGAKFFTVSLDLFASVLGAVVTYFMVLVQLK
# Protocol: (§1) In some experiments we transfected cells with pcDNA3-DOR22a-GFP or pcDNA3-DOR83b-GFP alone. We also examined the properties of DOR47a, which was cloned, using standard molecular biology methods into a pcDNA3.1(-) expression vector. To test for putative G-protein coupling, cells were transfected with the respective OR-DNA together with 1.5 µg hHCN2/pcDNA3 (provided by M. Biel, Munich, Germany), with 1 µg hKCNQ4/pcDNA3.1 or with 1 µg hCNGA2/pCMV6-XL4 (Origene, Rockville, MD, USA).
# (§2) In brief, ion currents in HEK293 cells were measured at room temperature using whole-cell patch-clamp with appropriate compensation of series resistance and of capacitive currents. Additional experiments were performed in the outside-out configuration. Current measurements and data acquisition were performed using an EPC9 patch-clamp amplifier controlled by PatchMaster software (both HEKA Elektronik, Lambrecht, Germany). Patch-clamp pipettes were fabricated from borosilicate capillaries. Pipettes for whole-cell recordings had resistances of 2-4 MΩ for excised-patch recordings the pipette resistance was up to 15 MΩ.
# [2] = target: T2, Or83b (Drosophila melanogaster, UniProt Q9VNB5); experiment: Whole-cell patch-clamp of HEK293 cells expressing Or83b alone; assay type: cell-based; design: expressed in transfected cells; host or cells: HEK293
# T2 sequence (Q9VNB5 1-486): T1 sequence (Q9VNB5 1-486)
# Protocol: as §1, §2
# (§3) To differentiate between ionotropic and metabotropic pathways of receptor activation (Fig. 2a-d) the pipette solution contained either 2 mM ATP plus 2 mM GTP or 2 mM ADP plus 2 mM GDP (both for whole-cell and outside-out configuration). For the preparation of Cl^--free solutions the chloride salts were substituted by gluconate salts. The pipette Cs^+ solution contained (in mM) 140 CsCl, 1 Mg-ATP, 10 EGTA, 10 HEPES (pH = 7.3), and the Cs^+ bath solution contained (in mM) 140 CsCl, 15 glucose, 15 HEPES (pH = 7.4). The Ca^2+-free bath solution contained (in mM) 140 NaCl, 15 glucose, 15 HEPES, and the Na^+-free bath solution contained (in mM) 140 NMDG-Cl, 10 CaCl2, 10 glucose, 15 HEPES.
# (§4) With the exception of GDP-γ-S, which was applied via the patch pipette, all substances were applied to the bath using either a bath perfusion system (BPS4 from ALA, New York, USA) or a rapid solution changer (RSC160 from Biologic, Claix, France) which were controlled by the PatchMaster software (HEKA Elektronik).
# [3] = target: T2, Or83b; experiment: Calcium imaging (fura-2) in HEK293 cells expressing Or83b; assay type: cell-based; design: expressed in transfected cells; host or cells: HEK293; conditions: cell expressing Or83b (Fig. 6e)
# Protocol: Free intracellular Ca^2+ concentration ([Ca^2+]i) was determined by fura-2 fluorescence as described (Messutat et al., Cell Calcium 30, 199-211. (2001)). In brief, cells were loaded with fura-2 by incubation in bath solution containing 2 µM fura-2/acetomethylester for 20 min. Free intracellular Ca^2+ concentration ([Ca^2+]i) was determined with the fluorescence ratio method. Excitation of fura-2 at 340 and 380 nm was performed with a monochromator (Polychrome II, T.I.L.L. Photonics, Gräfelfing, Germany) coupled via an epifluorescence condenser into an Axioskop FS microscope (Carl Zeiss, Jena, Germany) with a water immersion objective (LUMPFL 40xW/IR/0.8; Olympus, Hamburg, Germany). […] [Ca^2+]i was calculated according to the equation [Ca^(2 +)]i = Keff (R-Rmin)/(Rmax-R). […] Keff, Rmin, and Rmax were determined using HEK293 cells permeabilized with 2 µM ionomycin and three solutions with different concentrations of free Ca^2+ (Ca^2+ free; 5 mM Ca^2+; 500 nM Ca^2+; the composition of the 500 nM solution was calculated with WEBMAXC v.2.20) (Patton et al., Cell Calcium 35, 427-31 (2004)). […]
# Fluorescence images were acquired using a cooled CCD camera controlled by TILLVision 4.0 software (T.I.L.L. Photonics). […] Image pairs were obtained by excitation for 100 ms at 340 nm and 380 nm; background fluorescence was subtracted.
# [4] = target: T3, Or22a and Or83b (Drosophila melanogaster, UniProt P81909+Q9VNB5); experiment: Whole-cell patch-clamp of currents in HEK293 cells coexpressing Or22a and Or83b; assay type: cell-based; conditions: absence of Etb; 10 µM benzaldehyde; n = 6
# T3 construct: expressed in transfected cells; host or cells: HEK293
# T3 sequence (P81909 1-397): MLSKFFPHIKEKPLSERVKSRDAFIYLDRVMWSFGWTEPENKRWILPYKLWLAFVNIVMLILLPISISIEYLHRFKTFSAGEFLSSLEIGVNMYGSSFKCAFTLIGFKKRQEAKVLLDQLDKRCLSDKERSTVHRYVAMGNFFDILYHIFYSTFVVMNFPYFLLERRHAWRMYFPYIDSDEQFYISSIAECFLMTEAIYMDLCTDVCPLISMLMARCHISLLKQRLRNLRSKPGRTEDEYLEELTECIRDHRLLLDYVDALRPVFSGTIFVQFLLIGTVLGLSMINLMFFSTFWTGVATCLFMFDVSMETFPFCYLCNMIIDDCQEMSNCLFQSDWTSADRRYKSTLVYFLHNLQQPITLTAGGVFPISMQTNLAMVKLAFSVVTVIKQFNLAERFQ
# T3 sequence (Q9VNB5 1-486): T1 sequence (Q9VNB5 1-486)
# Protocol: as §1, §2, §3, §4
# [5] = target: T2, Or83b; experiment: cell-based; conditions: -60 mV, n = 10
# Protocol: For this, HEK293 cells were cultured at a density of ∼2*10^4 per 35-mm dish and transfected with 1 µg pcDNA3-DOR83b-GFP (Neuhaus et al., Nat Neurosci 8: 15-17, 2005.) using Roti-Fect transfection kit (Roth, Karlsruhe, Germany). For electrophysiological experiments we only used cells showing GFP fluorescence (when illuminated at 470 nm) as indicator of putative OR expression.
# For electrophysiological studies, ion currents in HEK293 cells were measured at room temperature in the inside-out configuration. Current measurements and data acquisition were performed using an EPC9 patch-clamp amplifier controlled by PatchMaster software (both HEKA Elektronik, Lambrecht, Germany). Patch-clamp pipettes were fabricated from borosilicate capillaries. Pipettes for whole-cell recordings had resistances of up to 15 MΩ. The bath solution contained (in mM) 140 KCI, 4 NaCl, 2.2 CaCl2, 2 Mg-ATP, 0.05 Na-GTP, 5 EGTA, 10 HEPES (pH 7.3), and the pipette solution contained (in mM) 135 NaCl, 5 KCI, 1 CaCl2, 1 MgCl2, 10 HEPES, 10 glucose (pH 7.4).
# [6] = test system: modified cyclic nucleotide-gated ion channels; conditions: US 07166463 and US 07341836; cited from earlier work
# [7] = target: T4, vertebrate CNGA2 channel (Rattus norvegicus, UniProt Q00195); conditions: Dhallan et al., Nature 347 (1990); cited from earlier work
# T4 sequence (Q00195 1-664): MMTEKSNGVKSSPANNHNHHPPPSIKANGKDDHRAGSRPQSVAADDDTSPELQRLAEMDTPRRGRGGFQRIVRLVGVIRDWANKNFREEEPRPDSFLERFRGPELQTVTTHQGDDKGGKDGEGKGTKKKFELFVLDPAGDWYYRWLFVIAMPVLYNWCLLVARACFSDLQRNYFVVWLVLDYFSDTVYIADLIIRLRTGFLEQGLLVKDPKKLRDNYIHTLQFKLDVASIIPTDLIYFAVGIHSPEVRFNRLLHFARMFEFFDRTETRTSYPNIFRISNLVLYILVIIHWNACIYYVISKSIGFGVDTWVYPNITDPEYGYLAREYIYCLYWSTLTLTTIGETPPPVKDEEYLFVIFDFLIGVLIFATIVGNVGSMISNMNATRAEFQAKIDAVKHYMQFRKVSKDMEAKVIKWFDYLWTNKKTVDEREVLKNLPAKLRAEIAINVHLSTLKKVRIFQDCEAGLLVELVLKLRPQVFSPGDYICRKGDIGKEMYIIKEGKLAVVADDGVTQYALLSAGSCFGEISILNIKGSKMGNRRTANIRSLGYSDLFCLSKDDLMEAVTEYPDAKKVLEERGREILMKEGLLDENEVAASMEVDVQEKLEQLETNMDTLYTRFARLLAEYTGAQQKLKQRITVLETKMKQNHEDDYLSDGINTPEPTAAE
# [8] = target: Periplaneta adipokinetic hormone receptor (pAKHR) (Periplaneta); experiment: cell-based or functional assay
compound,measurement,setting,value
Nc1nc2c(nc(Br)n2[C@@H]2O[C@@H]3COP(=O)(O)O[C@H]3[C@H]2O)c(=O)[nH]1 [8-bromo-cGMP],current response of cells,[1],responsive
same,current elicited,[2]; Or83b-expressing HEK293 cells,elicited a current similar to that obtained upon 8-bromo-cAMP application
same,agonist comparison for current activation,"[2]; concentration-response relations, -100 mV (Fig. 6d)",significantly better agonist than 8-bromo-cAMP
same,agonist comparison for the elevation of [Ca^2+]i,[3],significantly better agonist than 8-bromo-cAMP
"O=Cc1ccccc1 [Bea, benzaldehyde]",effect on current recorded under control conditions,[4],reduced the current recorded under control conditions
CCCCCCOC(=O)C1(O)CC2OC1(C)n1c3ccccc3c3c4c(c5c6ccccc6n2c5c31)C(=O)NC4 (stereo not drawn) [KT5720],effect of preincubation on ion currents elicited by 8-bromo-cAMP,"[2]; 10 µM, n = 6",not significantly altered
"CCCCCOC(C)=O [PA, pentyl acetate]",current response of cells,[1],responding
"Nc1ncnc2c1ncn2[C@@H]1O[C@@H]2COP(=O)(O)O[C@H]2[C@H]1O [cAMP, 3'-5'-cyclic adenosine monophosphate]",Hill coefficient of mean currents of inside-out patches,[5],0.42
same,EC50,[5]; EC50 of mean currents of inside-out patches,1 nM and 1.1 nM
same,EC50,[6],14500 nM
"Nc1nc2c(ncn2[C@@H]2O[C@@H]3COP(=O)(O)O[C@H]3[C@H]2O)c(=O)[nH]1 [cGMP, cyclic guanosine monophosphate]",EC50,[7],1000 nM
adipokinetic hormone I (AKH I) (peptide),"membrane current at -100 mV (whole-cell patch clamp, ramp protocol) in HEK293 cells coexpressing pAKHR and the cAMP-activated channel Or83b, after application of AKH I",[8],294 pA
